Measurements published in ChEMBL document CHEMBL5291721, “A preclinical secondary pharmacology resource illuminates target-adverse drug reaction associations of marketed drugs” (Nat Commun, 2023).

Experiments:
Adenosine receptor A1 [1] = molecular target: T1, Adenosine receptor A1 (Homo sapiens, UniProt P30542)
T1 sequence (P30542 whole entry): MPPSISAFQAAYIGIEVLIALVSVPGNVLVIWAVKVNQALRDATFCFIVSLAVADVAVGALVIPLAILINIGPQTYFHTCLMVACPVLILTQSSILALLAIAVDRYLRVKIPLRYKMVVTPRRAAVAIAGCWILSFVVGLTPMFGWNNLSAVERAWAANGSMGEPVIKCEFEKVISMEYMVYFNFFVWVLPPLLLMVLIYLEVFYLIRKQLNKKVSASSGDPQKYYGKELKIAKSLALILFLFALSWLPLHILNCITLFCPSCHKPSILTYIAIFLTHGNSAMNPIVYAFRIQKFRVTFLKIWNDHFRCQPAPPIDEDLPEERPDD

[2] = molecular target: T2, Alpha-2A adrenergic receptor (Homo sapiens, UniProt P08913); format: functional, cell-based
T2 sequence (P08913 whole entry): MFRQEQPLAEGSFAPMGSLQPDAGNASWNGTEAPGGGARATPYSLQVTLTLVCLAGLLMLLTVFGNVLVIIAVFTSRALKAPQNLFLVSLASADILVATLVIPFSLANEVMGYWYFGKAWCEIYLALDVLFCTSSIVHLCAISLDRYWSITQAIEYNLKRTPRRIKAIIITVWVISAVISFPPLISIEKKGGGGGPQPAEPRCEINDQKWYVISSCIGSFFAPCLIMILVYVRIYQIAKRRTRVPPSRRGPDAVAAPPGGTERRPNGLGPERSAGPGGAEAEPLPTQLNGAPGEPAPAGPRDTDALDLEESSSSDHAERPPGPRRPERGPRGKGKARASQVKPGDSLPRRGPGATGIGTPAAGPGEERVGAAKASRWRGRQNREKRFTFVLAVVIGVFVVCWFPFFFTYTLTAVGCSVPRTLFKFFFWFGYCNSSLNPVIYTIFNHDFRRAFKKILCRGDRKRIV

[3] = molecular target: Beta-2 adrenergic receptor (Homo sapiens, UniProt P07550); format: functional, cell-based
[4] = molecular target: T3, 5-hydroxytryptamine receptor 2B (Homo sapiens, UniProt P41595); format: functional, cell-based
[5] = molecular target: T3, 5-hydroxytryptamine receptor 2B; format: functional, cell-based; remark: listed apart in the source
[6] = molecular target: 3',5'-cyclic-AMP phosphodiesterase 4D (Homo sapiens, UniProt Q08499); format: functional
[7] = molecular target: cGMP-inhibited 3',5'-cyclic phosphodiesterase 3A (Homo sapiens, UniProt Q14432); format: functional
Adenosine receptor A1 [8] = molecular target: T1, Adenosine receptor A1; remark: listed apart in the source
Vasopressin V2 receptor = Vasopressin V2 receptor (Homo sapiens, UniProt P30518)
Cannabinoid receptor 1 = Cannabinoid receptor 1 (Homo sapiens, UniProt P21554); format: functional, cell-based
[9] = molecular target: Growth hormone secretagogue receptor type 1 (Homo sapiens, UniProt Q92847)
Motilin receptor = Motilin receptor (Homo sapiens, UniProt O43193)
Glucocorticoid receptor = molecular target: T4, Glucocorticoid receptor (Homo sapiens, UniProt P04150)
T4 sequence (P04150 whole entry): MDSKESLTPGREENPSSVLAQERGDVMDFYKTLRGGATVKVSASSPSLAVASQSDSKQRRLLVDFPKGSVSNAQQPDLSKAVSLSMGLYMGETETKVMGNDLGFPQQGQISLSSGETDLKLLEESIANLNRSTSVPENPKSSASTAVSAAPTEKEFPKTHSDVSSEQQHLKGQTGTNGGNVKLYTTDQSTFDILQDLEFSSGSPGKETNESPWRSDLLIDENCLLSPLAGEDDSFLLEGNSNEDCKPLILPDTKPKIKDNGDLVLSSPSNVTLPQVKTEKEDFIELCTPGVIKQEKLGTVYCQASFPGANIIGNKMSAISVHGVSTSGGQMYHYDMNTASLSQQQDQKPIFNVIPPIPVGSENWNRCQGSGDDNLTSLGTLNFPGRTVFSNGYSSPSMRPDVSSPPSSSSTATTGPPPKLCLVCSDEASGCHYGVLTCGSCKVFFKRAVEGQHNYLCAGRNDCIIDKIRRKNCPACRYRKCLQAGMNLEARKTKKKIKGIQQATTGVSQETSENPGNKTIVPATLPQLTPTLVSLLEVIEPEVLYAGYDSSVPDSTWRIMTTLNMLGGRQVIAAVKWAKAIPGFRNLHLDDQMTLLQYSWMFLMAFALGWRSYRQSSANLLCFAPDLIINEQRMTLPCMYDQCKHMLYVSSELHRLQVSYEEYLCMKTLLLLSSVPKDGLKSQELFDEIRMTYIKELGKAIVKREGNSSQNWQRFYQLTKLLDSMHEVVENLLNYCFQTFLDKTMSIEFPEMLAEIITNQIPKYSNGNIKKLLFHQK

[10] = molecular target: T5, Equilibrative nucleoside transporter 1 (Homo sapiens, UniProt Q99808)
T5 sequence (Q99808 whole entry): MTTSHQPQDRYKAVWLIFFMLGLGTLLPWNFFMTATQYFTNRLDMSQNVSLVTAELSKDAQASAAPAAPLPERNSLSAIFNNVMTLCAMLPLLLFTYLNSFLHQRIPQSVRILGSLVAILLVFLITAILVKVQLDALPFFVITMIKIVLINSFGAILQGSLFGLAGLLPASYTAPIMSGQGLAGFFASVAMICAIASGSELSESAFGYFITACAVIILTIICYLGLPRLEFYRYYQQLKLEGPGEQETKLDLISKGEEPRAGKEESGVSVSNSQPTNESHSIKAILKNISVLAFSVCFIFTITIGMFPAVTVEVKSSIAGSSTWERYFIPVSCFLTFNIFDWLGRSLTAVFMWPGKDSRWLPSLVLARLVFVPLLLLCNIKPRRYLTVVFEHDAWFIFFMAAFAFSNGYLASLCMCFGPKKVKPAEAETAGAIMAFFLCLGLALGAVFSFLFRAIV

[11] = molecular target: Sodium-dependent noradrenaline transporter (Homo sapiens, UniProt P23975)
Also: assay procedure not described here.

Sequence of cGMP-inhibited 3',5'-cyclic phosphodiesterase 3A (Q14432 whole entry): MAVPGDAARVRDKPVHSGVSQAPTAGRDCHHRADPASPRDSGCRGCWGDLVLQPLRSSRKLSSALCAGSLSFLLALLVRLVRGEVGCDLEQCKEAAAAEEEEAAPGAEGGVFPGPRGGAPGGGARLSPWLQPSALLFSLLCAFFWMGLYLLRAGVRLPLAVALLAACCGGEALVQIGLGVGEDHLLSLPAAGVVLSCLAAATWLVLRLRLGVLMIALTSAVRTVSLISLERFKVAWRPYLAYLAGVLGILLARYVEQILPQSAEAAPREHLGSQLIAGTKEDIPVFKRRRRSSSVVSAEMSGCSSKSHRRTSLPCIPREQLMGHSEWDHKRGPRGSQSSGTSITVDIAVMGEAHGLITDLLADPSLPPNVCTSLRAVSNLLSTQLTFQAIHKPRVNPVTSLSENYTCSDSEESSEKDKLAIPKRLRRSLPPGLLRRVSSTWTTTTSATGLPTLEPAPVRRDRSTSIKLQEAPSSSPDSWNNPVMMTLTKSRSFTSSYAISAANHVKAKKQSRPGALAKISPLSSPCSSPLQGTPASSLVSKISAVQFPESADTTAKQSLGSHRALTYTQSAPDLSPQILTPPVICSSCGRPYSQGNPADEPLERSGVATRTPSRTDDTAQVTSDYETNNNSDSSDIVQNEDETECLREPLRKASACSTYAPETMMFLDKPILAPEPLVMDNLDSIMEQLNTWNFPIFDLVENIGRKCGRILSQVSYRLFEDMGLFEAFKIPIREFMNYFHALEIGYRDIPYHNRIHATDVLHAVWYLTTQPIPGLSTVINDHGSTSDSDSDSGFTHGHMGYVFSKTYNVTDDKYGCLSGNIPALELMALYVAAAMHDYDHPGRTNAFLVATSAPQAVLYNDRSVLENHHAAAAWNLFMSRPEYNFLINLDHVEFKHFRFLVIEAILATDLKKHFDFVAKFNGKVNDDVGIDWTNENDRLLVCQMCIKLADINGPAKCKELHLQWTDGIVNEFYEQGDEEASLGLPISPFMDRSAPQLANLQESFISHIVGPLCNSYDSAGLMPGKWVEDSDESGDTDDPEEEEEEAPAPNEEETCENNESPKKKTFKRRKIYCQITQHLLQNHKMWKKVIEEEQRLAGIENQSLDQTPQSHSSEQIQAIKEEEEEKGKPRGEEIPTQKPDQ
Sequence of 3',5'-cyclic-AMP phosphodiesterase 4D (Q08499 whole entry): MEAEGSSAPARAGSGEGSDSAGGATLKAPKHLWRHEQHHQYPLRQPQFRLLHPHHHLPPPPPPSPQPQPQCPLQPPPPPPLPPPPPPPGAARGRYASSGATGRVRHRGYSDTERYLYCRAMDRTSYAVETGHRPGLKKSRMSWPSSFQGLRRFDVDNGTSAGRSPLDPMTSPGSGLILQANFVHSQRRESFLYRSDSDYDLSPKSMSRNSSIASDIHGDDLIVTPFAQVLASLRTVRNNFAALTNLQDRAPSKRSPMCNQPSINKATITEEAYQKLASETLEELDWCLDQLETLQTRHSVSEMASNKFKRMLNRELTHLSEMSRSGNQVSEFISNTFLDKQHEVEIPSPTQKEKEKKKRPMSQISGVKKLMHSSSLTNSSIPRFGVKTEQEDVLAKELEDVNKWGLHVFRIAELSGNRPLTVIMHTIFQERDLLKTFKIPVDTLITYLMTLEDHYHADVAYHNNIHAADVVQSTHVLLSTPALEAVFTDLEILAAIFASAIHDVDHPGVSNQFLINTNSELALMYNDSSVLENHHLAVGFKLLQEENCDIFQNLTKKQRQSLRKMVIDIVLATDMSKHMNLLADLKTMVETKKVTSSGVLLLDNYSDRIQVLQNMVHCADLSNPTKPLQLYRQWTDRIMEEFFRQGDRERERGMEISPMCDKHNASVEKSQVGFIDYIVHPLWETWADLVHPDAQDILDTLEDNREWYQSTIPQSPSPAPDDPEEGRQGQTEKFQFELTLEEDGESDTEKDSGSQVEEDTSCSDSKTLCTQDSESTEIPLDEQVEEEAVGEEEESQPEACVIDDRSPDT
T3 sequence (P41595 whole entry): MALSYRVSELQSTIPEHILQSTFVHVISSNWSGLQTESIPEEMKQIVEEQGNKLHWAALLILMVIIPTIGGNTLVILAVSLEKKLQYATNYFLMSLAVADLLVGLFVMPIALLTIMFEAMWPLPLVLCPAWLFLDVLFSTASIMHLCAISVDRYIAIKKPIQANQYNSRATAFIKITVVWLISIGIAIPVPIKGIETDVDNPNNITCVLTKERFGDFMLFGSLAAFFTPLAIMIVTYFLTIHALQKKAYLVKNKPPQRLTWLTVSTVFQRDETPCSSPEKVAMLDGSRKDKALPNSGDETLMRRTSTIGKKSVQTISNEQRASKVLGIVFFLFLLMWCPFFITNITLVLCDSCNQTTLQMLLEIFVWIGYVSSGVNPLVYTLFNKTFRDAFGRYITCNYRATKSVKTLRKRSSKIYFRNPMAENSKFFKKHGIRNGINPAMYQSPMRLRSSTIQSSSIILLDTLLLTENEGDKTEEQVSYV
Sequence of Beta-2 adrenergic receptor (P07550 whole entry): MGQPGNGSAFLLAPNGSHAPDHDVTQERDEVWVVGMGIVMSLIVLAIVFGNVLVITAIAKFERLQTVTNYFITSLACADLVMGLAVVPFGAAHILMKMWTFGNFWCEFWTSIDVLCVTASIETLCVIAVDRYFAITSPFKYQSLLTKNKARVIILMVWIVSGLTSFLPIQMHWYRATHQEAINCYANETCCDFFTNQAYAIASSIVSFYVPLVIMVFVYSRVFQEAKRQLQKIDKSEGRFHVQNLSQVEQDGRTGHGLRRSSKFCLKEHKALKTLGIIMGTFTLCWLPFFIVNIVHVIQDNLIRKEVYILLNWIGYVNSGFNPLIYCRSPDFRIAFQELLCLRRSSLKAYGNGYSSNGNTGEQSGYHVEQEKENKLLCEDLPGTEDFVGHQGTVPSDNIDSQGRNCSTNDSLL
Sequence of Cannabinoid receptor 1 (P21554 whole entry): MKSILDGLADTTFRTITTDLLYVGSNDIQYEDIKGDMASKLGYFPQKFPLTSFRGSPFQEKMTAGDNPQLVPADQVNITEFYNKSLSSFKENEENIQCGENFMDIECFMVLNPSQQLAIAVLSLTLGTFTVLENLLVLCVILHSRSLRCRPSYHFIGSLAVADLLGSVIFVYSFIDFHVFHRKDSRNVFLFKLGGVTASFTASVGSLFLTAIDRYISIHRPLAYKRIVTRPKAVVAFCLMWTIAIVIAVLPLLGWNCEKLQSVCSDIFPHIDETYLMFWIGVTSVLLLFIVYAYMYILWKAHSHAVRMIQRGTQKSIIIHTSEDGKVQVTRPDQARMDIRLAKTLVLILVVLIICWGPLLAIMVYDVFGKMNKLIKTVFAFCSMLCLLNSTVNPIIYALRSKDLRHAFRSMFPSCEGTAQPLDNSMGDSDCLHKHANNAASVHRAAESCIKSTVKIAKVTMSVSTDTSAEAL
Sequence of Sodium-dependent noradrenaline transporter (P23975 whole entry): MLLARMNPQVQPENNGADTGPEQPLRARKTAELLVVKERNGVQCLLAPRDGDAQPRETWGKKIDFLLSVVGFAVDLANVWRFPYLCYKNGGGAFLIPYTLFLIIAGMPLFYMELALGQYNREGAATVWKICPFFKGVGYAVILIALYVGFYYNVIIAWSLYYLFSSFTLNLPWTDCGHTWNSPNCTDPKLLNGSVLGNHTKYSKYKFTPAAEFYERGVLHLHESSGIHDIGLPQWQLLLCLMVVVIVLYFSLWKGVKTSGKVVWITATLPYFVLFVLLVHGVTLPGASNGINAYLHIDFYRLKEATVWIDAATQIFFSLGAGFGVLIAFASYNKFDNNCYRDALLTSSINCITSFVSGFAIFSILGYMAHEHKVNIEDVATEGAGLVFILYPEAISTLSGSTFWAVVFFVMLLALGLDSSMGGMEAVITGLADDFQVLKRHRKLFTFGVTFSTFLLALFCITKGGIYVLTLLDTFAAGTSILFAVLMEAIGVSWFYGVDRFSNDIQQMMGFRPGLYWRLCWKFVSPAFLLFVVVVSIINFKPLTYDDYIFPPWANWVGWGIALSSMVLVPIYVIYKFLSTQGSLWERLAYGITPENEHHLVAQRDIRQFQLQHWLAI
Sequence of Vasopressin V2 receptor (P30518 whole entry): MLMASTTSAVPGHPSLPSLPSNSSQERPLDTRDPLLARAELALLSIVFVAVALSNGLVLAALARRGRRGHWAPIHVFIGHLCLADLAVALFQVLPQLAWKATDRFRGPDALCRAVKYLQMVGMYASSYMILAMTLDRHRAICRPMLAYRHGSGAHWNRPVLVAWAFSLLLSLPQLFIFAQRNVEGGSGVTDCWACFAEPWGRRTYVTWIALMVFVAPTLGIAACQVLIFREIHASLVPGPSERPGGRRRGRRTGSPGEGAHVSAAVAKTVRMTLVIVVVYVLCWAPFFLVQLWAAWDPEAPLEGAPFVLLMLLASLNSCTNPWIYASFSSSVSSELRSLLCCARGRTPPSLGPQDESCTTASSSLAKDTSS
Sequence of Growth hormone secretagogue receptor type 1 (Q92847 whole entry): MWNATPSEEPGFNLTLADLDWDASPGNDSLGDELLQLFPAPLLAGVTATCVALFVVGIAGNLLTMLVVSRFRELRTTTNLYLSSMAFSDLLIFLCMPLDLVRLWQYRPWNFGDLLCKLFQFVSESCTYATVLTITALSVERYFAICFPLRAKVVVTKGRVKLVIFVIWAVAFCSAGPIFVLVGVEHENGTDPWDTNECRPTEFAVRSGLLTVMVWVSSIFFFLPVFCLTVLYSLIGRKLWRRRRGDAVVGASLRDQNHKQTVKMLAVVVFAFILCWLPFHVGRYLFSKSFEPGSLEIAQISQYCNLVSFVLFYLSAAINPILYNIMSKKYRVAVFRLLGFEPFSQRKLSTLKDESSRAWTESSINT

Structure (SMILES)	AC50 (Adenosine receptor A1 [1]) [µM]	AC50 [2] [µM]	AC50 [3] [µM]	AC50 [4] [µM]	AC50 [5] [µM]	AC50 [6] [µM]	AC50 [7] [µM]	AC50 (Adenosine receptor A1 [8]) [µM]	AC50 (Vasopressin V2 receptor) [µM]	AC50 (Cannabinoid receptor 1) [µM]	AC50 [9] [µM]	AC50 (Motilin receptor) [µM]	AC50 (Glucocorticoid receptor) [µM]	AC50 [10] [µM]	AC50 [11] [µM]
CN1CCN(C2=Nc3ccccc3Sc3ccc(Cl)cc32)CC1 [CLOTHIAPINE]	> 30	> 30	> 30	> 30	1.3	> 30	> 30								
CC[C@H]1CN2CCc3cc(OC)c(OC)cc3[C@@H]2C[C@@H]1C[C@H]1NCCc2cc(OC)c(OC)cc21 [EMETINE]	> 30	1.2	> 30	> 30	> 30	> 30	> 30	> 30	> 30	> 30	> 30	> 30	> 30	> 30	> 30
Cc1cc(C)c(NC(=O)CN(CC(=O)O)CC(=O)O)c(C)c1Br [MEBROFENIN]	> 30	> 30	> 30	> 30	> 30	> 30	> 30			> 30					
COc1ccccc1N1CCN(CC(O)COc2cccc3ccccc23)CC1 (configuration not stated) [NAFTOPIDIL]	> 30	3.7	> 30	> 30	0.84	> 30	> 30			> 30			8.9	13	9.6
Cc1oc(=O)oc1CN1CCN(c2cc3c(cc2F)c(=O)c(C(=O)O)c2n3C(C)S2)CC1 (configuration not stated) [PRULIFLOXACIN]	> 30	> 30	> 30	> 30	> 30	> 30	> 30			> 30					
COC1=C(OC)C(=O)C(C/C=C(\C)CC/C=C(\C)CC/C=C(\C)CC/C=C(\C)CC/C=C(\C)CC/C=C(\C)CC/C=C(\C)CC/C=C(\C)CC/C=C(\C)CCC=C(C)C)=C(C)C1=O [UBIDECARENONE]	> 30	> 30	> 30	> 30	> 30	> 30	> 30			> 30					
